Reference: patent US20230235374A1, “High Throughput Assays for Detecting Translation Readthrough Inducers” (The Trustees of the University of Pennsylvania, priority 2021, published 2023)

Experiments:
[1] = system: Atto(pep)-Stop-POST5 (RFC-dependent termination); assay: Plate reader fluorescence anisotropy assay of pentapeptide release; assay type: biochemical, shrimp (Artemia salina); settings: added ataluren 200-1,000 μM
Protocol: Plate reader assays were run in a Tecan F200® 96-well plate reader (Greiner® black, non-binding, chimney flat) equipped with 640 nm excitation and 700 nm polarization filters using 96-well plates. Atto(pep)-Stop-POST5 in Buffer 4 (0.1 μM, 80 μl) containing GTP (1 mM) was added to plate wells±ataluren at 25° C. eRF1 and eRF3 aliquots stored at −80° C. were thawed for 15 s at 37° C. and added directly to a premade ice-cold GTP (1 mM)±ataluren solution in Buffer 4. The resulting release factor solution was incubated at 25° C. for 1 min, and then added quickly in 80 μL portions to the Atto(pep)-Stop-POST5 containing wells with a multichannel pipette to the Atto(pep)-Stop-Posts wells. The final concentrations were: eRF1, 0.025-0.4 μM; eRF3, 0.8 μM; Atto(pep)-Stop-Posts, 0.05 μM. Fluorescence anisotropy decay graphs were fit with GraphPad Prism, using the one phase decay model to obtain peptide dissociation rates.
Ensemble fluorescence anisotropy results using Atto(pep)-Stop-POST5. The fluorescence anisotropy of the pentapeptidyl moiety of Atto(pep)-Stop-POST5 was quite high (0.22), and decreased following addition of RFC, providing a convenient measure of the rate of pentapeptide release from the ribosome. […] Each such time dependency could be fit to a single exponential, giving the collected rate constants presented in FIG. 9G, in which the rate dependence as a function of RFC concentration was measured at 0, 200, 500, and 1,000 μM ataluren. In the absence of ataluren, EC50 (0.029±0.002 μM) and Vmax (0.31±0.02) values were obtained for pentapeptide release similar to those measured by smTIRF. In addition, as with the smTIRF results, Vmax values were unaffected by added ataluren but EC50 values increased, reaching ˜0.06 μM at 1000 μM.

[2] = biological target: T1, eRF3 (Saccharomyces cerevisiae, UniProt P05453); assay: [3H]-AzAt photoaffinity labeling of eRF3; assay type: binding; settings: near linear response to AzAt concentration
T1 construct: amino acid residues (166-685) of the eRF3 open reading frame; made in house; host or cells: E. coli BL21(DE3) CodonPlus
T1 sequence (P05453 166-685): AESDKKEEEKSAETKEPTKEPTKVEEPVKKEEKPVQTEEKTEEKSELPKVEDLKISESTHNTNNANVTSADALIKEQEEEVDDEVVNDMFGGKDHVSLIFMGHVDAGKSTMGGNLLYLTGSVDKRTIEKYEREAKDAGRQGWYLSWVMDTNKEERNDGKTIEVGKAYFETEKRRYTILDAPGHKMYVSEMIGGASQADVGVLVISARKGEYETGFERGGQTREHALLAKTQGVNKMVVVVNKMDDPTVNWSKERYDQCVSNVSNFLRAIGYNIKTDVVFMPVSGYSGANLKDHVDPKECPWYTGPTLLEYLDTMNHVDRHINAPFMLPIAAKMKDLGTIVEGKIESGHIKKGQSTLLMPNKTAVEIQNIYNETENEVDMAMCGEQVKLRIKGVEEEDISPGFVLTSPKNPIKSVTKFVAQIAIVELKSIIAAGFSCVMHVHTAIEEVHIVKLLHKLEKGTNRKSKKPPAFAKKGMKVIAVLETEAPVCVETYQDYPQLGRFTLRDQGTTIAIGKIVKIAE
Protocol: Photoaffinity labeling with [^3H]-AzAt. Samples in Buffer 4, typically 20 μL, were incubated in the dark (20 min for Stop-POST5 and 80S-IRES complexes, 2 min for release factors) with various concentrations of [^3H]-AzAt at 37° C., transferred to a UV-transparent cuvette which was covered with parafilm to prevent evaporation, and irradiated in a Rayonet photochemical reactor equipped with 300 nm UV lamps for 5 min at room temperature. This was followed by quenching with 2 mM DTT at 37° C. for 5 min under ambient light. The irradiation time gave complete photolysis of the phenyl azide moiety in AzAt. Photolysis was also complete at 5 min in the presence of 1 mM ataluren, ruling out internal filtering effects.
Photoaffinity labeling of release factors. Solutions containing eRF1 (10 μM), eRF3 (20 μM) and 1 mM GMPPMP were pre-incubated at 37° C. for 2 min to form the ternary complex prior to photolabeling with [^3H]-AzAt. After quenching, reaction mixtures were loaded onto a 4-15% mini protean SDS-PAGE gel for protein separation and isolation. Gel slices containing eRF1 or eRF3, as shown by Coomassie Blue R250 staining, were crushed and the radioactivity was extracted in extraction buffer (50 mM Tris-HCl, 150 mM NaCl, and 0.1 mM EDTA; pH 7.5) by vigorously shaking at 70° C. for 30 min. The data fitting was performed using the software Prism. […]

[3] = system: rRNA fragments I-IV of 80S-IRES; assay: RNaseH fragment assay, 80S-IRES; assay type: binding, shrimp (Artemia salina); settings: PAL, 300 μM AzAt, alone or plus competing ligand named as label
Protocol: RNaseH Fragment Assay. Total RNA was prepared from the ^3H-AzAt photoaffinity labeled ribosome by phenol-chloroform extraction. RNA: DNA duplexes were formed by incubating total RNA (0.2 μM) with an oligonucleotide pair (1 μM of each, sequences shown Table 1), flanking a specific RNA region, in 22.8 μL of water at 95° C. for 2 min, followed by annealing at 50° C. for 30 s and quenching on ice. Six units (1.2 μL) of RNase H (NEB) and 6 μl of 5×RNase H Reaction Buffer were next added to the RNA: DNA duplex and incubated at 37° C. for 1 hour, followed by phenol-chloroform extraction of RNA. The digested RNA was separated on 12% TBE-Urea PAGE gel, and the target band along with the adjacent upper and bottom gels were sliced by a 2 mm gel cutter. The gel slices were crushed and the ^3H labeled rRNA fragment was extracted in water by vigorously shaking at 70° C. for 30 min, or by overnight extraction in elution buffer (0.3M sodium acetate, 0.25% SDS, 1 mM EDTA). The slurry was removed by centrifugation and the eluted ^3H labeled rRNA in the supernatant was quantified. The stoichiometry of AzAt photoincorporation was calculated based on a gel recovery yield of 20±2%, determined using an authentic sample of [^3H]-Gln-tRNA^Gln.
Testing the functional pertinence of AzAt photolabeling of 18S A1195, 28S-A3093, 28S-A2672, and 28S-2669. An RNAse H fragment assay was employed to determine whether the potential functionally significant sites identified by LASER-seq correspond to ataluren binding sites relevant for termination activity. In this assay, oligonucleotide hybridization, RNase H digestion and polyacrylamide gel electrophoresis (PAGE) were used to determine the stoichiometry of [^3H]-AzAt photoincorporation into the three rRNA fragments that together include the four nucleotides of interest: Fragment I, 18S-A1195; Fragment II, 26S-A3093; Fragment III, 26S-A2669 and 26S-A2672 (Table 5). The separate addition of four potential competitors of AzAt binding (eRF1 alone, the stably bound eRF1.eRF3.GDPNP complex, ataluren, and the ataluren-like TRID GJ072) was used to test how these affected such photoincorporation. These experiments, the results of which are summarized in Table 5, were performed at two different AzAt concentrations. eRF1 and eRF1.eRF3.GDPNP effects were measured using 300 μM AzAt, paralleling the LASER-Seq PAL experiments.

O=C(O)c1cccc(-c2noc(-c3ccccc3F)n2)c1 [Ataluren]
effect on Vmax values [1]: unaffected

[N-]=[N+]=Nc1ccc(-c2nc(-c3cccc(C(=O)O)c3)no2)cc1 [AzAt]
nature of photo-incorporation into eRF3 [2]: nonspecific binding
Photoincorporation yields into 18S A1195/ I: 18S 1151-1206 ([3]; 80S-IRES): 1.03 ± 0.33 mole %
Photoincorporation yields into 26S-A2669:A2672/ III: 26S 2638-2702 ([3]; 80S-IRES): 1.01 ± 0.12 mole %
Photoincorporation yields into 26S-A3093/ II: 26S 3069-3113 ([3]; 80S-IRES): 0.50 ± 0.09 mole %
Photoincorporation yields into RNAse H Fragment IV: 26S 1413-1476 ([3]; 80S.IRES): 0.29 ± 0.11%
